# In US5580956A, “Phospholipase C-inhibiting peptides” (priority 1992, dated 1996):
# Numbered stars: 1 amine (or outer) side, 2 acyl side, 3 side chain; on linkers, the order of the positions; unused ones are H or OH. Peptide text beside a SMILES is read from it. * marks the point of attachment. Benzoyl(2,5-(OH)2) = O=C(c1cc(O)ccc1O)*; Cyclopentanecarbonyl = O=C(C1CCCC1)*; Propanoyl(3-cHex) = O=C(CCC1CCCCC1)*; Propanoyl(3-cPent) = O=C(CCC1CCCC1)*; Cyclohexylacetyl = O=C(CC1CCCCC1)*; Cyclopropanecarbonyl = O=C(C1CC1)*; Suc = O=C(CCC(=O)[*:2])[*:1]; Isobutyryl = CC(C)C(=O)*
# What was measured:
# [1] = target: T1, PLC-γ1 (Bos taurus, UniProt P08487); assay: PLC-inhibiting activity (release of [3H]inositol phosphate from [3H]PIP2); type: biochemical, bovine; details: PI-PLC-γ1, 37° C., 10 minutes, read-out: Inhibition rate (%); for inhibition at 130 µM (stock): Concentration 130 μM (aqueous solution of test peptide); for inhibition at 120 µM (stock): Concentration 120 μM (aqueous solution of test peptide)
# T1 construct: A sample (PLC-γ1) was prepared from bovine thymus according to the method of Y. Homma et al; from tissue; host or cells: bovine thymus
# T1 sequence (P08487 1-1291): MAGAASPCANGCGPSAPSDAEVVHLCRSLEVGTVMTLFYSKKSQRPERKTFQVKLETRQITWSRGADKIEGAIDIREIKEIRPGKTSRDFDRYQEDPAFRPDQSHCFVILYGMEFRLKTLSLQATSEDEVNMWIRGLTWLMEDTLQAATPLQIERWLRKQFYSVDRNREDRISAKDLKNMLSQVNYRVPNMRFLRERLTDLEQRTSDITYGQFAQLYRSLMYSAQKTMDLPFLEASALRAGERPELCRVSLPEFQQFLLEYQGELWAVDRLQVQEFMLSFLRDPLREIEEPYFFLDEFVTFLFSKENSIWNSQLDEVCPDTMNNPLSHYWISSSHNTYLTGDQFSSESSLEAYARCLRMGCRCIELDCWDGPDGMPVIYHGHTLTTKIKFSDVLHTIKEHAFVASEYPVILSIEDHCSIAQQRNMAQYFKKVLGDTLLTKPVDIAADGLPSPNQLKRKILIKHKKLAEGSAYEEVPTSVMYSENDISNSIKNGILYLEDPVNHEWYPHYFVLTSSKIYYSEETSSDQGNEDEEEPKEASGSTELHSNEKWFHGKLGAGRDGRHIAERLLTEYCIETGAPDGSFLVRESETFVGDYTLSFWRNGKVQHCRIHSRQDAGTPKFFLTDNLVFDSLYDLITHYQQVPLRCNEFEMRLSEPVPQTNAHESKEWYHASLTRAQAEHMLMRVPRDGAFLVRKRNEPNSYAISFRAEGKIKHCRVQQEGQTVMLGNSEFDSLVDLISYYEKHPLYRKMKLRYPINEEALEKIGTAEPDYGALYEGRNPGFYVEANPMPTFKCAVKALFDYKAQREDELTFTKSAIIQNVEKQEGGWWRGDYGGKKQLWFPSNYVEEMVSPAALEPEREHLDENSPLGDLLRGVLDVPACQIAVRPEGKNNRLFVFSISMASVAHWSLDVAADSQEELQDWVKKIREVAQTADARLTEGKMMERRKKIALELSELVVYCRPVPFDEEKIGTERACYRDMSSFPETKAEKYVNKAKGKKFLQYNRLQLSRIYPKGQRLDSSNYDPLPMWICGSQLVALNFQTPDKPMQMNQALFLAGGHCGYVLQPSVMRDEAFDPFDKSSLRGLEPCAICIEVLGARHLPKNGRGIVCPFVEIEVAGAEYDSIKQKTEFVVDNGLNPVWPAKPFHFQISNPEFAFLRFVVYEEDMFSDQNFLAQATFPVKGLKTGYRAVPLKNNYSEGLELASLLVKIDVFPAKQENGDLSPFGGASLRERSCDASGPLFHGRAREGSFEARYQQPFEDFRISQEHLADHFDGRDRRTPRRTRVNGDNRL
# Experimental: A sample (PLC-γ1) was prepared from bovine thymus according to the method of Y. Homma et al. described in Biochemical Journal [(Biochem. J.), 269, 13 (1990)]. A solution having the composition listed in Table 1 below was prepared in advance on the ice and the reaction was begun with heating to 37° C. After incubation for 10 minutes, 2 ml of a solution mixture of chloroform/methanol (2:[…]) was added thereto to stop the reaction. The resulting inositol phosphate was extracted with 0.5 ml of 1N hydrochloric acid. Two-phase distribution was carried out by centrifugation (2000×g, 3 minutes), and the amount of ^3 H contained in 0.7 ml of the supernatant was measured with scintillation counter. […] The obtained value of specific radioactivity was defined as "A", the value of specific radioactivity obtained when an equivalent amount of water was added instead of the aqueous solution of the test peptide was defined as "B", the value of specific radioactivity obtained when an equivalent amount of water was added instead of the sample and the aqueous solution of the test peptide was defined as "C", and the inhibition rate (X) was determined according to the following equation. X(%)=[…]
# [2] = tested on: KMS-4 cells; assay: Cell proliferation-inhibiting activity (BrdU incorporation, Amersham Cell Proliferation Detection Kit); type: cell-based; details: 17 hours with peptide, BrdU-stained cells
# Experimental: The following procedure was carried out with an Amersham Cell Proliferation Detection Kit. First, cells [KMS-4; M. Nanba et al., International Journal of Cancer, 32, 697 (1983)] were suspended in a DMEM culture medium (product of Nissui Seiyaku) containing 10% fetal calf serum to a concentration of 1-2×10^4 cells/ml, and 1 ml of the above-mentioned cell suspension was put into each well of a 24-well plate (product of Corning Co.). The cells were cultured for 2 days in a CO2 incubator (37° C., 5% CO2). Next, the culture medium was exchanged with a DMEM medium containing 10% fetal calf serum, and then the test peptide was added thereto and culturing was carried out for 17 hours. The culture medium was again exchanged with a serum-free DMEM medium, 0.5 ml of a solution of the reagents labelled 5-bromo-2'-deoxyuridine (BrdU) and 5-fluoro-2'-deoxyuridine (FdU) [10:1] diluted 1000-fold with the same medium was added to each well, and cultured for 2 hours. The culture medium was removed, and the cells were immobilized with an acetic acid/ethanol solution. The immobilized cells were stained according to the method for the Amersham Cell Proliferation Kit, and then further stained with a 1% Giemsa solution (product of Merck Co.). The number of cells incorporating BrdU and the total cell count within 1 field of vision of the microscope (approximately 200 cells) were determined, and the proportion (%) of stained cells per field of vision was calculated. Furthermore, the same procedure was repeated 10 times, and the average value thereof was defined as the cell proliferation activity (%). The cell proliferation-inhibiting activity was calculated in the following manner. The proliferation activity without addition of peptide was defined as "A", the proliferation activity with addition of the test peptide was defined as "B", and the cell proliferation inhibition rate (X) was determined according to the following equation. X (%)=[…]
# [3] = tested on: Proteus vulgaris ATCC6897; type: cell-based; details: ATCC6897, pH 7
# Experimental: (§1) The antibacterial activity was determined by the agar dilution method using a culture medium (pH 7.0) containing 3 g/l bactotrypton (product of Difco Co.), 1 g/l meat extract, 1 g/l glucose and 16 g/l agar.
# [4] = tested on: Pseudomonas aeruginosa Bin H No. 1; type: cell-based; details: Bin H No. 1, pH 7
# Experimental: as §1
Compound,MIC [3] [µg/mL],MIC [4] [µg/mL],Cell proliferation inhibition rate (%) ([2]; Concentration 31 μM),inhibition at 120 µM (stock) [1] [%],also measured
"CSCC[C@H](NC(=O)[C@H](CCCCN)NC(=O)[C@H](CCCNC(=N)N)NC(=O)[C@H](Cc1ccc(O)cc1)NC(=O)[C@H](CC(C)C)NC(=O)C(C)C)C(=O)N[C@@H](CCCNC(=N)N)C(=O)N[C@@H](CC(C)C)C(=O)N[C@@H](CCCNC(=N)N)C(=O)N[C@@H](Cc1ccc(O)cc1)C(=O)N1CCC[C@H]1C(=O)N[C@H](C(N)=O)C(C)C [(I-19), (CH3)2 CHCO-Leu-Tyr-Arg-Lys-Met-Arg-Leu-Arg-Tyr-Pro-Val-NH2] (Isobutyryl-LYRKMRLRYPV-NH2)",83,83,,,inhibition at 640 µM (stock) ([1]; Concentration 640 μM (aqueous solution of test peptide)): 67%; Cell proliferation inhibition rate (%) ([2]; Concentration 32 μM): 59%
"CSCC[C@H](NC(=O)[C@H](CCCCN)NC(=O)[C@H](CCCNC(=N)N)NC(=O)[C@H](Cc1ccc(O)cc1)NC(=O)[C@H](CC(C)C)NC(=O)CCC(=O)O)C(=O)N[C@@H](CCCNC(=N)N)C(=O)N[C@@H](CC(C)C)C(=O)N[C@@H](CCCNC(=N)N)C(=O)N[C@@H](Cc1ccc(O)cc1)C(=O)N1CCC[C@H]1C(=O)N[C@H](C(N)=O)C(C)C [(I-22), HOO (CH2)2 CO-Leu-Tyr-Arg-Lys-Met-Arg-Leu-Arg-Tyr-Pro-Val-NH2] (Suc-LYRKMRLRYPV-NH2)",83,42,84,,inhibition at 130 µM (stock) [1]: 36%
"CSCC[C@H](NC(=O)[C@H](CCCCN)NC(=O)[C@H](CCCNC(=N)N)NC(=O)[C@H](Cc1ccc(O)cc1)NC(=O)[C@H](CC(C)C)NC(=O)CC1CCCCC1)C(=O)N[C@@H](CCCNC(=N)N)C(=O)N[C@@H](CC(C)C)C(=O)N[C@@H](CCCNC(=N)N)C(=O)N[C@@H](Cc1ccc(O)cc1)C(=O)N1CCC[C@H]1C(=O)N[C@H](C(N)=O)C(C)C [(I-25), C6 H11 CH2 CO-Leu-Tyr-Arg-Lys-Met-Arg-Leu-Arg-Tyr-Pro-Val-NH2] (Cyclohexylacetyl-LYRKMRLRYPV-NH2)",,,75,50,
"CSCC[C@H](NC(=O)[C@H](CCCCN)NC(=O)[C@H](CCCNC(=N)N)NC(=O)[C@H](Cc1ccc(O)cc1)NC(=O)[C@H](CC(C)C)NC(=O)c1cc(O)ccc1O)C(=O)N[C@@H](CCCNC(=N)N)C(=O)N[C@@H](CC(C)C)C(=O)N[C@@H](CCCNC(=N)N)C(=O)N[C@@H](Cc1ccc(O)cc1)C(=O)N1CCC[C@H]1C(=O)N[C@H](C(N)=O)C(C)C [(I-15), (HO)2 C6 H3 CO-Leu-Tyr-Arg-Lys-Met-Arg-Leu-Arg-Tyr-Pro-Val-NH2] ({Benzoyl(2,5-(OH)2)}-LYRKMRLRYPV-NH2)",,,66,41,
"CSCC[C@H](NC(=O)[C@H](CCCCN)NC(=O)[C@H](CCCNC(=N)N)NC(=O)[C@H](Cc1ccc(O)cc1)NC(=O)[C@H](CC(C)C)NC(=O)C1CCCC1)C(=O)N[C@@H](CCCNC(=N)N)C(=O)N[C@@H](CC(C)C)C(=O)N[C@@H](CCCNC(=N)N)C(=O)N[C@@H](Cc1ccc(O)cc1)C(=O)N1CCC[C@H]1C(=O)N[C@H](C(N)=O)C(C)C [(I-26), C5 H9 CO-Leu-Tyr-Arg-Lys-Met-Arg-Leu-Arg-Tyr-pro-Val-NH2] (Cyclopentanecarbonyl-LYRKMRLRYPV-NH2)",83,42,71,,inhibition at 130 µM (stock) [1]: 23%
"H-YRKMRLRY-NH2 [Compound (I-9), H-Tyr-Arg-Lys-Met-Arg-Leu-Arg-Tyr-NH2]",,,,,inhibition at 850 µM (stock) ([1]; Concentration 850 μM (aqueous solution of test peptide)): 34%; Cell proliferation inhibition rate (%) ([2]; Concentration 42 μM): 50%
"CSCC[C@H](NC(=O)[C@H](CCCCN)NC(=O)[C@H](CCCNC(=N)N)NC(=O)[C@H](Cc1ccc(O)cc1)NC(=O)[C@H](CC(C)C)NC(=O)CCC1CCCCC1)C(=O)N[C@@H](CCCNC(=N)N)C(=O)N[C@@H](CC(C)C)C(=O)N[C@@H](CCCNC(=N)N)C(=O)N[C@@H](Cc1ccc(O)cc1)C(=O)N1CCC[C@H]1C(=O)N[C@H](C(N)=O)C(C)C [(I-16), C6 H11 CH2 CH2 CO-Leu-Tyr-Arg-Lys-Met-Arg-Leu-Arg-Tyr-Pro-Val-NH2] ({Propanoyl(3-cHex)}-LYRKMRLRYPV-NH2)",,,84,51,
"CSCC[C@H](NC(=O)[C@H](CCCCN)NC(=O)[C@H](CCCNC(=N)N)NC(=O)[C@H](Cc1ccc(O)cc1)NC(=O)[C@H](CC(C)C)NC(=O)CCC1CCCC1)C(=O)N[C@@H](CCCNC(=N)N)C(=O)N[C@@H](CC(C)C)C(=O)N[C@@H](CCCNC(=N)N)C(=O)N[C@@H](Cc1ccc(O)cc1)C(=O)N1CCC[C@H]1C(=O)N[C@H](C(N)=O)C(C)C [(I-23), C5 H9 CH2 CH2 CO-Leu-Tyr-Arg-Lys-Met-Arg-Leu-Arg-Tyr-Pro-Val-NH2] ({Propanoyl(3-cPent)}-LYRKMRLRYPV-NH2)",,,53,53,
"CSCC[C@H](NC(=O)[C@H](CCCCN)NC(=O)[C@H](CCCNC(=N)N)NC(=O)[C@H](Cc1ccc(O)cc1)NC(=O)[C@H](CC(C)C)NC(=O)C1CC1)C(=O)N[C@@H](CCCNC(=N)N)C(=O)N[C@@H](CC(C)C)C(=O)N[C@@H](CCCNC(=N)N)C(=O)N[C@@H](Cc1ccc(O)cc1)C(=O)N1CCC[C@H]1C(=O)N[C@H](C(N)=O)C(C)C [(I-24), C3 H5 CO-Leu-Tyr-Arg-Lys-Met-Arg-Leu-Arg-Tyr-Pro-Val-NH2] (Cyclopropanecarbonyl-LYRKMRLRYPV-NH2)",,,,55,Cell proliferation inhibition rate (%) ([2]; Concentration 32 μM): 66%
